Measured values: patent publication US11098040B2, “Compounds and methods of use” (Ferro Therapeutics, Inc., priority 2018, dated 2021)
Values joined by “and” are separate entries in the source; they are usually repeats but may differ in a detail not shown here. Equal values may be shown once.

Columns and labels:
SK-OV-3 = test: Cell viability assay (CellTiter Glo), ovarian cancer cell line SK-OV-3; assay type: cell-based; conditions: Homo sapiens, 96 hours
Procedure: (§1) Cell viability assay was performed to assess the potency of the compounds in human cancer cell lines KP4 (pancreatic ductal adenocarcinoma), MiaPaCa-2 (pancreatic carcinoma), AsPC-1 (pancreatic adenocarcinoma, ascites), 143B (osteosarcoma), and SJSA-1 (osteosarcoma). Selected compounds were also assayed in a human breast epithelial cell line MCF-10A, a nontumorigenic cell line as a control to assess differential activity. Cells at a density of 500-5,000 cells/well were seeded in 96-well plates and incubated at 37° C. overnight. A series of 9 different concentrations of compound stocks (500×) were created by 3-fold serial dilution in DMSO. These compounds were further diluted in culture media and then added to cells so that the final DMSO concentration was equal to 0.25% or less. After 96 hours of incubation, 50 μL of CellTiter Glo reagent (Promega) was added to each well and luminescence was measured after 10 minutes using EnVision (PerkinElmer). Compounds titrated from top concentration of up to 30 μM. The select compounds were tested initially from 30 μM as the top concentration in duplicates (range of 4.6 nM-30 μM). […] Luminescence from cells treated with DMSO alone was set as Max and % of inhibition was calculated as follows: Inhibition %=(Max-Sample value)/Max*100. Data was analyzed using XL-fit software (ID Business Solutions Ltd.). IC50, relative IC50, or % of top inhibition was calculated.
(§2) A group of selected analogs were further profiled in cell viability assays described above in multiple additional cancer cell lines, including lung cancer, melanoma, hepatocarcinoma, pancreatic cancer, leukemia, lymphoma, ovarian cancer, breast cancer, colon cancer, and sarcoma cell lines. Initial cell seeding numbers were adjusted for each cell line. Typically, 500-5000 cells/well for adherent cells and 5000-10000/well for suspension cells were seeded in 96-well plates.

HT29 = test: Cell viability assay (CellTiter Glo), colon cancer cell line HT29; assay type: cell-based; conditions: Homo sapiens, HT-29, 96 hours
Procedure: as §1, §2

[1] = Pharmacokinetic (PK) studies via intravenous infusion, Sprague-Dawley rat; assay type: in vivo; conditions: male, plasma, one rat
Procedure: Test compound dosing solutions were administered via intravenous infusion to Sprague-Dawley male rat.
Into 50 μL of test compound plasma samples were added 5 μL DMSO then 200 μL of 25 ng/mL internal standard (ITSD) (Verapamil) in MeOH/acetonitrile (1:1, v/v). […] The limit of quantification (LOQ) was 1 ng/mL.
The lower limit of quantification was 1-10 ng. A typical HPLC gradient table is described below: […]
The PK profiles of compound 24 and compound 28 are shown below. […] The volume of injection via intravenous infusion route was adjusted for a dose of 2, 4 and 8 mg/kg. […] The limit of quantification was 1 ng/mL.

HT-1080 luc2 = test: Cell viability assay (CellTiter Glo), fibrosarcoma HT-1080 luc2; assay type: cell-based; conditions: Homo sapiens, fibrosarcoma expressing a luciferase gene, 96 hours, CellTiter Glo, read-out: IC50 HT-1080 luc2
Procedure: as §1, §2
(§3) The results of the assay in sarcoma cell lines are given in Table 21a for HT-1080 luc2 (fibrosarcoma expressing a luciferase gene), Table 21b for 143B (osteosarcoma), and Table 21c for SJSA-1 (osteosarcoma).

Huh7 = test: Cell viability assay (CellTiter Glo), hepatocellular carcinoma Huh7; assay type: cell-based; conditions: Homo sapiens, Huh-7, 96 hours
Procedure: as §1, §2

MDA-MB-435S = test: Cell viability assay (CellTiter Glo), melanoma cell line MDA-MB-435S; assay type: cell-based; conditions: Homo sapiens, 96 hours
Procedure: as §1, §2

HL-60 = test: Cell viability assay (CellTiter Glo), leukemia cell line HL-60; assay type: cell-based; conditions: Homo sapiens, 96 hours
Procedure: as §1, §2
(§4) The results of the assay in the leukemia cell lines are given in Table 16a for MV-4-1 and Table 16b for HL-60 and Kasumi-1.

SJSA-1 = test: Cell viability assay (CellTiter Glo), osteosarcoma SJSA-1; assay type: cell-based; conditions: Homo sapiens, 96 hours
Procedure: as §1, §3

H2228 = test: Cell viability assay (CellTiter Glo), lung cancer cell line H2228; assay type: cell-based; conditions: Homo sapiens, NCI-H2228; lung cancer cell line, 96 hours, CellTiter Glo; read-out: IC50 H2228
Procedure: as §1, §2

MV-4-1 = test: Cell viability assay (CellTiter Glo), leukemia cell line MV-4-1; assay type: cell-based; conditions: 96 hours
Procedure: as §1, §2, §4

MCF-10A = test: Cell viability assay (CellTiter Glo), non-tumorigenic breast epithelial cell line MCF-10A; assay type: cell-based; conditions: Homo sapiens, 96 hours
In short: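 Non-tumorigenic breast epithelial MCF-10A line, exposed for 96 hours to compound (top concentration up to 30 μM, 3-fold steps, duplicates, final DMSO 0.25% or less). ATP luminescence (CellTiter Glo) normalised to DMSO controls yields IC50, relative IC50 or % top inhibition; paclitaxel served as cytotoxic control.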

in vivo = conditions: male, Balb/c nude, mouse, ip, 15 mg/kg, Calculated Concentration
Procedure: (§6) Test compounds were dissolved either in 20% (w/w) sulfobutylether-β-cyclodextrin (SBECD) pH 3-7 aqueous solution, or 5% DMSO/(30-50%) PEG400/(65-45%) water. Test compound dosing solutions were administered intraperitoneally to Balb/c nude male mice. Blood samples were collected at various time points with EDTA-K2 as anti-coagulant on ice, and centrifuged to obtain plasma samples. The plasma samples were stored at −20° C. until analysis.
(§7) Into 10 μL of test compound plasma samples were added 2 μL DMSO then 200 μL of 5 ng/mL internal standard (VTSD) (Terfenadine) in MeOH/acetonitrile. The mixture was vortexed for 1 minute and centrifuged at 4000 rpm for 15 minutes. Calibration standards were prepared by spiking known amount of test compounds into blank plasma samples. The supernatant solution was diluted 5 times with Acetonitrile/H2O (with 0.1% formic acid, 1:1, v/v), and this is the solution for LC-MS/MS analysis. The limit of quantification (LOQ) was 1 ng/mL.
(§8) Typical HPLC mobile phases were mobile phase of 5 mM NH4OAc (with 0.05% formic acid); and mobile phase B of acetonitrile (with 0.1% formic acid). The HPLC column was Kinetex C18 (30 mm×3.00 mm). Mass spectrometer was tuned for each compound in the Multiple Reaction Monitoring (MRM) scanning mode and in the electrospray ionization mode. The lower limit of quantification was 1-10 ng.
(§9) In this study, K601 (RSL3) was formulated in 5% DMSO/30% PEG 400/65% water at 1.5 mg/mL. The volume of injection via intraperitoneal route was 10 mL/kg for a dose of 15 mg/kg. […] The limit of quantification (LOQ) was 1 ng/mL.
(§10) In this study, the compound was formulated in 20% (w/w) sulfobutylether-β-cyclodextrin (SBECD), pH 5 aqueous solution at 1.5 mg/mL. The volume of injection via intraperitoneal route was 10 mL/kg for a dose of 15 mg/kg. The concentration of test compounds in plasma were analyzed by LC-MS with the method described above. The limit of quantification was 1 ng/mL.
(§11) It was formulated in 5% DMSO/50% PEG400/45% Water pH adjusted to 4 with HCl as an aqueous solution at 1.0 mg/mL. The volume of injection via intraperitoneal route was 15 mL/kg for a dose of 15 mg/kg. The concentration of test compounds in plasma were analyzed by LC-MS with the method described above. The limit of quantification was 1 ng/mL. […] The limit of quantification was 1 ng/mL.
(§12) Compounds 24 and 28 were formulated in 20% (w/w) sulfobutylether-β-cyclodextrin (SBECD) with pH 3 and pH 4, respectively, as an aqueous solution at 1.0 mg/mL. Compound 67 was in 5% DMSO/50% PEG 400/45% water pH 4 (adjusted with 12 N HCl) aqueous solution at 1.0 mg/mL. The injection volume via intraperitoneal route was 10 mL/kg for a dose of 15 mg/kg. The concentration of test compounds in plasma were analyzed by LC-MS with the method described above. The limit of quantification was 1 ng/mL.

[2] = mouse, in vivo, ip, 15 mg/kg
Procedure: as §6, §7, §8, §9, §10, §11, §12

Kasumi-1 = test: Cell viability assay (CellTiter Glo), leukemia cell line Kasumi-1; assay type: cell-based; conditions: Homo sapiens, 96 hours
Procedure: as §1, §2, §4

H1299 = test: Cell viability assay (CellTiter Glo), lung cancer cell line H1299; assay type: cell-based; conditions: Homo sapiens, NCI-H1299, 96 hours
Procedure: as §1, §2

Raji = test: Cell viability assay (CellTiter Glo), lymphoma cell line Raji; assay type: cell-based; conditions: Homo sapiens, 96 hours
Procedure: as §1, §2

PANC1 = test: Cell viability assay (CellTiter Glo), pancreatic cell line PANC1; assay type: cell-based; conditions: Homo sapiens, PANC-1, 96 hours
Procedure: as §1, §2
(§5) The results of the assay in the pancreatic cell lines are given in Table 15a for PANC1, Table 15b for MiaPaCa-2, and Table 15c for AsPC-1.

AsPC-1 = test: Cell viability assay (CellTiter Glo), pancreatic adenocarcinoma AsPC-1; assay type: cell-based; conditions: Homo sapiens, ASPC1; pancreatic adenocarcinoma, ascites, 96 hours, CellTiter Glo; read-out: IC50 AsPC-1
Procedure: as §1, §5

143B = test: Cell viability assay (CellTiter Glo), osteosarcoma 143B; assay type: cell-based; conditions: Homo sapiens, 96 h, osteosarcoma, 96 hours, CellTiter Glo, read-out: IC50 143B
Procedure: as §1, §3

SW480 = test: Cell viability assay (CellTiter Glo), colon cancer cell line SW480; assay type: cell-based; conditions: Homo sapiens, 96 hours
Procedure: as §1, §2

MiaPaCa-2 = test: Cell viability assay (CellTiter Glo), pancreatic carcinoma MiaPaCa-2; assay type: cell-based; conditions: Homo sapiens, MIA PaCa-2; pancreatic carcinoma, 96 hours, CellTiter Glo; read-out: IC50 MiaPaCa-2
In short: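 MiaPaCa-2 and AsPC-1 cells were seeded overnight at 37 °C and exposed for 96 h to 9-point, 3-fold dilutions from up to 30 μM (final DMSO ≤0.25%). CellTiter Glo luminescence was read, and inhibition was calculated relative to DMSO-only cells. IC50, relative IC50 or % top inhibition was derived.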

HCC1954 = test: Cell viability assay (CellTiter Glo), breast cancer cell line HCC1954; assay type: cell-based; conditions: Homo sapiens, 96 hours
Procedure: as §1, §2

REC-1 = test: Cell viability assay (CellTiter Glo), lymphoma cell line REC-1; assay type: cell-based; conditions: Homo sapiens, Rec1, 96 hours
Procedure: as §1, §2

[3] = Pharmacokinetic (PK) studies in Balb/C nude mice via intraperitoneal injection; conditions: plasma; for concentration at 0.5 h / concentration at 4 h: Calculated Concentration; for concentration at 0.5 h / concentration at 4 h / Calculated Concentration: IP 15 mg/kg, Balb/C nude mice
Procedure: as §6, §7, §8, §9, §10, §11, §12

[4] = male, Balb/c nude, mouse, ip, 15 mg/kg

COC(=O)[C@H]1Cc2c([nH]c3ccccc23)[C@H](c2ccc(S(=O)(=O)N[C@]34C[C@H]5C[C@H](C[C@H](C5)C3)C4)cc2)N1C(=O)CCl [Example 24]
IC50 (SK-OV-3): 17 nM | IC50 (HT29): 87 nM | concentration at 1.0167 hr ([1]; 1 hour-IV infusion 2 mg/kg): 51.7 ng/mL | concentration at 1.0833 hr ([1]; 1 hour-IV infusion 2 mg/kg): 14.1 ng/mL | concentration at 1.25 hr ([1]; 1 hour-IV infusion 2 mg/kg): 4.95 ng/mL | concentration at 1.5 h ([1]; 1 hour-IV infusion 2 mg/kg): 2.18 ng/mL | concentration at 1.0167 hr ([1]; 1 hour-IV infusion 4 mg/kg): 159 ng/mL | concentration at 1.0833 hr ([1]; 1 hour-IV infusion 4 mg/kg): 36.4 ng/mL | concentration at 1.25 hr ([1]; 1 hour-IV infusion 4 mg/kg): 13.8 ng/mL | concentration at 1.5 h ([1]; 1 hour-IV infusion 4 mg/kg): 5.07 ng/mL | concentration at 2 h ([1]; 1 hour-IV infusion 4 mg/kg): 2.62 ng/mL | concentration at 1.0167 hr ([1]; 1 hour-IV infusion 8 mg/kg): 259 ng/mL | concentration at 1.0833 hr ([1]; 1 hour-IV infusion 8 mg/kg): 97.5 ng/mL | concentration at 1.25 hr ([1]; 1 hour-IV infusion 8 mg/kg): 34 ng/mL | concentration at 1.5 h ([1]; 1 hour-IV infusion 8 mg/kg): 17.3 ng/mL | concentration at 2 h ([1]; 1 hour-IV infusion 8 mg/kg): 6.52 ng/mL | concentration at 3 h ([1]; 1 hour-IV infusion 8 mg/kg, 3 hr): 2.92 ng/mL | IC50 (HT-1080 luc2): 15 nM | IC50 (Huh7): 22 nM | IC50 (MDA-MB-435S): 4 nM | IC50 (HL-60): 16 nM | IC50 (SJSA-1): 13 nM | IC50 (H2228): 18 nM | IC50 (MV-4-1): 21 nM | IC50 (MCF-10A): 410 nM | concentration at 0.5 h (in vivo): 332 ng/mL | concentration at 1 h (in vivo): 355 ng/mL | concentration at 2 h (in vivo): 50.5 ng/mL | concentration at 4 h (in vivo): 3.41 ng/mL | concentration at 0.5 h (in vivo; Mean): 464 ng/mL | concentration at 1 h (in vivo; Mean): 317 ng/mL | concentration at 2 h (in vivo; Mean): 44.5 ng/mL | concentration at 4 h (in vivo; Mean): 4.56 ng/mL | exposure (Cmax, AUC) compared with K601 (RSL3) [2]: higher exposure | IC50 (Kasumi-1): 88 nM | IC50 (H1299): 3 nM | IC50 (Raji): 9 nM | IC50 (PANC1): 19 nM | IC50 (AsPC-1): 19 nM | IC50 (143B): 4 nM | IC50 (SW480): 167 nM | IC50 (MiaPaCa-2): 2 nM | IC50 (HCC1954): 39 nM | IC50 (REC-1): 33 nM

COC(=O)c1ccc([C@H]2c3[nH]c4ccccc4c3C[C@H](C(=O)OC)N2C(=O)CCl)cc1 [Example K601, RSL3, reference compound]
IC50 (SK-OV-3): 142 nM | IC50 (HT29): 832 nM | IC50 (HT-1080 luc2): 27 nM | IC50 (Huh7): 242 nM | IC50 (MDA-MB-435S): 37 nM | IC50 (HL-60): 104 nM | IC50 (SJSA-1): 67 nM | IC50 (H2228): 75 nM | IC50 (MV-4-1): 258 nM | IC50 (MCF-10A): 2950 nM | IC50 (Kasumi-1): 203 nM | IC50 (H1299): 35 nM | IC50 (Raji): 92 nM | IC50 (PANC1): 116 nM | IC50 (AsPC-1): 105 nM | IC50 (143B): 32 nM | IC50 (SW480): 619 nM | IC50 (MiaPaCa-2): 15 nM | IC50 (HCC1954): 180 nM | IC50 (REC-1): 227 nM | AUC [3, 4]: 1.28 ng·h/mL | AUC(0-t) [3, 4]: 1.28 ng·h/mL | Cmax [3, 4]: 1.33 ng/mL | Tmax [3, 4]: 1.67 h | concentration at 0.5 h ([3]; male, Balb/c nude, mouse, ip, 15 mg/kg, 0.5 h, individual mice): 1.18 ng/mL | concentration at 4 h ([3]; male, Balb/c nude, mouse, ip, 15 mg/kg, 4 h, individual mice): 1.63 ng/mL | concentration at 0.5 h ([3]; male, Balb/c nude, mouse, ip, 15 mg/kg, Mean, 0.5 h, mean of 3 mice): 0.783 ng/mL | concentration at 4 h ([3]; male, Balb/c nude, mouse, ip, 15 mg/kg, Mean, 4 h, mean of 3 mice): 0.543 ng/mL | Calculated Concentration ([3]; 0.5 h, individual mice, 15 mg/kg): BLOQ (BLOQ = Below limit of quantification (which was 1 ng/mL)) and 1.17 ng/mL | Calculated Concentration ([3]; 1 h, individual mice): BLOQ (BLOQ = Below limit of quantification (which was 1 ng/mL)) | Calculated Concentration ([3]; 2 h, individual mice): BLOQ (BLOQ = Below limit of quantification (which was 1 ng/mL)) | Calculated Concentration ([3]; 4 h, individual mice, 15 mg/kg): BLOQ (BLOQ = Below limit of quantification (which was 1 ng/mL))
